Reference: patent US10450378B2, “Cytotoxic and anti-mitotic compounds, and methods of using the same” (priority 2014, dated 2019)
Like-named read-outs stand apart in the source and are kept apart here.

Legend:
Assay in all cases: Cellular cytotoxicity of compounds of Formula I, Example 3.1
Type in all cases: cell-based
[1] = test system: Human Pancreatic cell line BxPC-3; conditions: five nights, CellTiter-Glo
Description: (§1) Compounds were tested on one or more of Human T-cell leukemia cell line Jurkat (ATCC: TIB-152); Human breast cancer cell lines HCC1954 (ATCC: CRL-2338) and JIMT-1 (DSMZ: ACC 589); Human Pancreatic cell line BxPC-3 (ATCC: CRL.1687), Human ovarian adenocarcinoma cell line SK-OV-3 (ATCC: HTB-77) and Human gastric carcinoma cell line NCI-N87 (ATCC: CRL. 5822); to assess their cytotoxicity.
(§2) Briefly, cells were obtained from commercial sources and cultured as described in the product sheet provided. Cells were removed from their culture vessels and the resulting cell suspension was counted using a ViCell (Beckman Coulter), then seeded at 25,000 cells/mL (2,500 cells/well) in Costar 3904 black walled, flat bottomed 96-well plates (cells were seeded in the inner 60 wells of 96-well TC plates, and outer edge wells filled with water). Adherent cell lines were incubated for one night at 37° C./5% CO2 atmosphere to allow the cells to attach to the microtiter plate surface, while suspension (Jurkat) cells were plated immediately before use. Cytotoxins were dissolved and serially diluted in dimethyl sulfoxide and then the solutions were added to complete growth medium at five-times the desired maximum final concentration. The cytotoxins were then titrated in growth medium, normally 1:3, over eight steps. A control with no test article present (growth medium alone) was included on each microtiter plate in sextuplicate. The prepared toxin titrations were added (25 μL/well) in triplicate to each cell line assayed. The cells and titrations were incubated at 37° C./5% CO2 for three nights (Jurkat) and five nights (all other cell lines). After the incubation, cell viability was measured using CellTiter-Glo® by adding 30 μL of prepared CellTiter-Glo® reagent to each assay well. The mixtures were incubated for at least twenty minutes in the dark prior to measuring emitted luminescence using a microplate luminometer (500 ms integration time). The collected relative luminescence units (RLU) were converted to % cytotoxicity using the growth medium alone control mentioned above (% Cytotoxicity=1-[well RLU/average medium alone control RLU]×100%).

[2] = test system: Human gastric carcinoma cell line NCI-N87; conditions: five nights, CellTiter-Glo
Description: as §1, §2

[3] = test system: Human T-cell leukemia cell line Jurkat; conditions: Homo sapiens, Jurkat, read-out: EC50 (nM) Jurkat
Description: as §1, §2

| Structure (SMILES) | EC50 [1] [nM] | EC50 [2] [nM] | EC50 ([3]; three nights, CellTiter-Glo) [nM] | EC50 [3] [nM] |
| --- | --- | --- | --- | --- |
| CC[C@H](C)[C@@H]([C@@H](CC(=O)N1CCC[C@H]1[C@H](OC)[C@@H](C)C(=O)N[C@@H](Cc1ccccc1)C(=O)NS(=O)(=O)Cc1ccc(CN)cc1)OC)N(C)C(=O)[C@@H](NC(=O)[C@H](C(C)C)N(C)C)C(C)C [Compound 28, (S)-N-((3R,4S,5S)-1-((S)-2-((1R,2R)-3-(((S)-1-(((4-(Aminomethyl)phenyl)methyl)sulfonamido)-1-oxo-3-phenylpropan-2-yl)amino)-1-methoxy-2-methyl-3-oxopropyl)pyrrolidin-1-yl)-3-methoxy-5-methyl-1-oxoheptan-4-yl)-2-((S)-2-(dimethylamino)-3-methylbutanamido)-N,3-dimethylbutanamide] | > 100 | > 100 | ~100 |  |
| CC[C@H](C)[C@@H]([C@@H](CC(=O)N1CCC[C@H]1[C@H](OC)[C@@H](C)C(=O)N[C@@H](Cc1ccccc1)C(=O)NS(=O)(=O)c1ccc(C2(N)CC2)cc1)OC)N(C)C(=O)[C@@H](NC(=O)[C@H](C(C)C)N(C)C)C(C)C [Compound 32, (S)-N-((3R,4S,5S)-1-((S)-2-((1R,2R)-3-((S)-1-(4-(1-Aminocyclopropyl)phenylsulfonamido)-1-oxo-3-phenylpropan-2-ylamino)-1-methoxy-2-methyl-3-oxopropyl)pyrrolidin-1-yl)-3-methoxy-5-methyl-1-oxoheptan-4-yl)-2-((S)-2-(dimethylamino)-3-methylbutanamido)-N,3-dimethylbutanamide] |  |  | > 100 |  |
| CC[C@H](C)[C@@H]([C@@H](CC(=O)N1CCC[C@H]1[C@H](OC)[C@@H](C)C(=O)N[C@@H](Cc1ccccc1)C(=O)NS(=O)(=O)c1ccc(C2(NC(=O)C(F)(F)F)CC2)cc1)OC)N(C)C(=O)[C@@H](NC(=O)[C@H](C(C)C)N(C)C)C(C)C [Compound 31, (S)-2-((S)-2-(Dimethylamino)-3-methylbutanamido)-N-((3R,4S,5S)-3-methoxy-1-((S)-2-((1R,2R)-1-methoxy-2-methyl-3-oxo-3-((S)-1-oxo-3-phenyl-1-(4-(1-(2,2,2-trifluoroacetamido)cyclopropyl)phenylsulfonamido)propan-2-ylamino)propyl)pyrrolidin-1-yl)-5-methyl-1-oxoheptan-4-yl)-N,3-dimethylbutanamide] |  |  |  | 31.1 |
| CC[C@H](C)[C@@H]([C@@H](CC(=O)N1CCC[C@H]1[C@H](OC)[C@@H](C)C(=O)NS(=O)(=O)c1ccc(N)cc1)OC)N(C)C(=O)[C@@H](NC(=O)C(C)(C)N)C(C)C [Compound 17, (S)-2-(2-Amino-2-methylpropanamido)-N-((3R,4S,5S)-1-((S)-2-((1R,2R)-3-((4-aminophenyl)sulfonamido)-1-methoxy-2-methyl-3-oxopropyl)pyrrolidin-1-yl)-3-methoxy-5-methyl-1-oxoheptan-4-yl)-N,3-dimethylbutanamide] | > 100 | > 100 | 30.5 |  |
| CC[C@H](C)[C@@H]([C@@H](CC(=O)N1CCC[C@H]1[C@H](OC)[C@@H](C)C(=O)N[C@@H](Cc1ccccc1)C(=O)NS(=O)(=O)c1ccc(CN)cc1)OC)N(C)C(=O)[C@@H](NC(=O)[C@H](C(C)C)N(C)C)C(C)C [Compound 24, (S)-N-((3R,4S,5S)-1-((S)-2-((1R,2R)-3-(((S)-1-((4-(Aminomethyl)phenyl)sulfonamido)-1-oxo-3-phenylpropan-2-yl)amino)-1-methoxy-2-methyl-3-oxopropyl)pyrrolidin-1-yl)-3-methoxy-5-methyl-1-oxoheptan-4-yl)-2-((S)-2-(dimethylamino)-3-methylbutanamido)-N,3-dimethylbutanamide] | > 100 | > 100 | ~100 |  |
| CC[C@H](C)[C@@H]([C@@H](CC(=O)N1CCC[C@H]1[C@H](OC)[C@@H](C)C(=O)NS(=O)(=O)c1ccc(N)cc1)OC)N(C)C(=O)[C@@H](NC(=O)[C@H]1CCCCN1C(C)C)C(C)C [Compound 16, (R)-N-((S)-1-(((3R,4S,5S)-1-((S)-2-((1R,2R)-3-((4-Aminophenyl)sulfonamido)-1-methoxy-2-methyl-3-oxopropyl)pyrrolidin-1-yl)-3-methoxy-5-methyl-1-oxoheptan-4-yl)(methyl)amino)-3-methyl-1-oxobutan-2-yl)-1-isopropylpiperidine-2-carboxamide] | 17 | 14.4 | 11.5 |  |
| CC[C@H](C)[C@@H]([C@@H](CC(=O)N1CCC[C@H]1[C@H](OC)[C@@H](C)C(=O)NS(=O)(=O)c1ccc(NC(=O)C(F)(F)F)cc1)OC)N(C)C(=O)[C@@H](NC(=O)[C@H]1CCCCN1C(C)C)C(C)C [Compound 15, (R)-1-Isopropyl-N-((S)-1-(((3R,4S,5S)-3-methoxy-1-((S)-2-((1R,2R)-1-methoxy-2-methyl-3-oxo-3-((4-(2,2,2-trifluoroacetamido)phenyl)sulfonamido)propyl)pyrrolidin-1-yl)-5-methyl-1-oxoheptan-4-yl)(methyl)amino)-3-methyl-1-oxobutan-2-yl)piperidine-2-carboxamide] | 14.5 | 11.7 | 10.1 |  |
| CC[C@H](C)[C@@H]([C@@H](CC(=O)N1CCC[C@H]1[C@H](OC)[C@@H](C)C(=O)NS(=O)(=O)c1ccc(CNC(=O)C(F)(F)F)cc1)OC)N(C)C(=O)[C@@H](NC(=O)[C@H](C(C)C)N(C)C)C(C)C [Compound 21, (S)-2-((S)-2-(Dimethylamino)-3-methylbutanamido)-N-((3R,4S,5S)-3-methoxy-1-((S)-2-((1R,2R)-1-methoxy-2-methyl-3-oxo-3-((4-((2,2,2-trifluoroacetamido)methyl)phenyl)sulfonamido)propyl)pyrrolidin-1-yl)-5-methyl-1-oxoheptan-4-yl)-N,3-dimethylbutanamide] | > 100 | > 300 | ~100 |  |
| CC[C@H](C)[C@@H]([C@@H](CC(=O)N1CCC[C@H]1[C@H](OC)[C@@H](C)C(=O)NS(=O)(=O)c1ccc(C2(NC(=O)C(F)(F)F)CC2)cc1)OC)N(C)C(=O)[C@@H](NC(=O)[C@H](C(C)C)N(C)C)C(C)C [Compound 29, (S)-2-((S)-2-(Dimethylamino)-3-methylbutanamido)-N-((3R,4S,5S)-3-methoxy-1-((S)-2-((1R,2R)-1-methoxy-2-methyl-3-oxo-3-(4-(1-(2,2,2-trifluoroacetamido)cyclopropyl)phenylsulfonamido)propyl)pyrrolidin-1-yl)-5-methyl-1-oxoheptan-4-yl)-N,3-dimethylbutanamide] |  |  | 22.1 |  |
| CC[C@H](C)[C@@H]([C@@H](CC(=O)N1CCC[C@H]1[C@H](OC)[C@@H](C)C(=O)NS(=O)(=O)c1ccc(C(=O)OC)cc1)OC)N(C)C(=O)[C@@H](NC(=O)[C@H](C(C)C)N(C)C)C(C)C [Compound 34, Methyl 4-(N-((2R,3R)-3-((S)-1-((3R,4S,5S)-4-((S)-2-((S)-2-(Dimethylamino)-3-methylbutanamido)-N,3-dimethylbutanamido)-3-methoxy-5-methylheptanoyl)pyrrolidin-2-yl)-3-methoxy-2-methylpropanoyl)sulfamoyl)benzoate] | > 300 | > 300 | > 100 |  |
| CC[C@H](C)[C@@H]([C@@H](CC(=O)N1CCC[C@H]1[C@H](OC)[C@@H](C)C(=O)NS(=O)(=O)c1ccc(C2(N)CC2)cc1)OC)N(C)C(=O)[C@@H](NC(=O)[C@H](C(C)C)N(C)C)C(C)C [Compound 30, (S)-N-((3R,4S,5S)-1-((S)-2-((1R,2R)-3-(4-(1-Aminocyclopropyl)phenylsulfonamido)-1-methoxy-2-methyl-3-oxopropyl)pyrrolidin-1-yl)-3-methoxy-5-methyl-1-oxoheptan-4-yl)-2-((S)-2-(dimethylamino)-3-methylbutanamido)-N,3-dimethylbutanamide] |  |  | > 100 |  |
| CC[C@H](C)[C@@H]([C@@H](CC(=O)N1CCC[C@H]1[C@H](OC)[C@@H](C)C(=O)N[C@@H](Cc1ccccc1)C(=O)NS(=O)(=O)c1ccc(CNC(=O)C(F)(F)F)cc1)OC)N(C)C(=O)[C@@H](NC(=O)[C@H](C(C)C)N(C)C)C(C)C [Compound 23, (S)-2-((S)-2-(Dimethylamino)-3-methylbutanamido)-N-((3R,4S,5S)-3-methoxy-1-((S)-2-((1R,2R)-1-methoxy-2-methyl-3-oxo-3-(((S)-1-oxo-3-phenyl-1-((4-((2,2,2-trifluoroacetamido)methyl)phenyl)sulfonamido)propan-2-yl)amino)propyl)pyrrolidin-1-yl)-5-methyl-1-oxoheptan-4-yl)-N,3-dimethylbutanamide] | 17.2 | 11.3 |  | 11.8 |
